Here are results for three compounds from US9585876B2 (NuSirt Sciences, Inc., priority 2013, dated 2017).

In series [1] the test system is LDL receptor knockout (LDLRKO) mice. Briefly: Plasma total cholesterol, cholesterol esters and triglycerides in LDLRKO mice on western diet, 28 days (Example 7). It counts as in vivo. As to the method: The mice were provided free access to an atherogenic western diet (WD) containing 0.21% cholesterol (by weight) and 40% calories from fat and water for 4 weeks prior to treatment. […] The treatments were administered for 28 days continuously.
Blood samples of the mice in all groups were obtained from tails of the mice at day 28 after the administration. The serum/plasma levels of triglyceride, total cholesterol and cholesterol esters were measured.

Series [2] concerns C. elegans. Put plainly: Lifespan of C. elegans (Example 8). It counts as in vivo, Caenorhabditis elegans. Conditions: leucine (0.5 mM) or nicotinic acid (10 nM), each alone. As to the method: Eggs were hatched on a starved plate overnight. […] To study lifespan, 50 young adult worms were placed on NGM agar plates seeded with E. coli strain OP-50 (=day 1 of study). All treatments were added with the indicated concentrations to the agar plates. […] The worms were maintained at 21° C. throughout the duration of the study. Worms were transferred to new plates daily to eliminate progeny. […] The study was continued until the last animal was dead. Data were analyzed via Kaplan-Meier survival curves using Prism 6 (GraphPad Software) and statistical significance was determined by the Log-rank (Mantel-Cox) test.

For series [3] the following is noted: oral dosing of about 3,000 mg; cited from earlier work.
Series [4] has as its system AMPK. Conditions: 3T3-L1 adipocytes; concentrations of nicotinic acid <100 nM alone. Here is the method: 3T3-L1 preadipocytes (American Type Culture Collection) were plated at a density of 8000 cells/cm2 (10 cm2 dish) and grown in Dulbecco's modified eagle's medium (DMEM) containing 10% fetal bovine serum (FBS), and antibiotics (growth medium) at 37° C. in 5% CO2. […] Preadipocytes were maintained in this differentiation medium for 3 days and subsequently cultured in growth medium. Cultures were re-fed every 2-3 days to allow >90% cells to reach fully differentiation before conducting chemical treatment.
Western blotting was performed with antibodies against AMPK and Phospho-AMPKα (Thr172) obtained from Cell Signaling (Danvers, Mass.). […] Total 30 μg of protein from the cell lysate was resolved on 10% Tris/HCL polyacrylamide gels (Criterion precast gel, Bio-Rad Laboratories, Hercules, Calif.), transferred to PVDF membranes, incubated in blocking buffer (3% BSA in TBS), incubated with primary antibody (P-AMPK), washed and incubated with secondary horseradish peroxidase-conjugated antibody.

The test system of series [5] is LDL receptor knockout (LDLRKO) mice. Put plainly: Lipid levels, atherosclerotic plaque and cutaneous vasodilation in LDLRKO mice on atherogenic diet, 60 days (Example 4). It counts as in vivo. Conditions: for HDL level in the blood stream compared to negative control group (atherogenic diet only) / triglyceride, LDL and cholesterol levels in the blood stream compared to negative control group (atherogenic diet only): 60 days. As to the method:
All chemicals are purchased from Sigma.
Cutaneous vasodilation is measured by laser-Doppler flowmeter.

The test system of series [6] is Patients that are pre-diagnosed with hyperlipidemia. Put plainly: Lipid levels and cutaneous vasodilation in hyperlipidemia patients, 60 days (Example 5). In kind it is in vivo, human. Conditions: for HDL level compared to day 0 values / triglyceride, LDL and cholesterol levels compared to day 0 values: orally twice a day, 60 days. As to the method: Patients that are pre-diagnosed with hyperlipidemia are admitted for the randomized and double blind study. […] The treatments are administered orally twice a day, for 60 days continuously.
Blood samples of the patients in all groups are obtained from at day 0, 30 and 60 after the administration. The serum/plasma levels of triglyceride, cholesterol, LDL and HDL are measured. Cutaneous vasodilation is measured by laser-Doppler flowmeter and the discomfort level described by the patients.

The subject of series [7] is Patients that experience acute chest pain and are pre-diagnosed with hyperlipidemia. Briefly: Atherosclerotic plaque size by quantitative coronary angiography in patients, 3 years (Example 6). Conditions: orally twice a day, (a) 50 mg nicotinic acid alone, (b) 50 mg nicotinic acid + 1135 mg leucine, (c) 50 mg nicotinic acid + 1135 mg leucine + 50 mg resveratrol, (d) 1135 mg leucine + 50 mg resveratrol. In kind it is in vivo, human. Here is the method:
The treatments are administered orally twice a day, for 3 years continuously. The size of atherosclerotic plaque is measured at day 0, months 6, 12, 18, 24, 30 and 36 by quantitative coronary angiography.

For series [8], the system named is Sirt1. Briefly: Sirt1 level by Western blotting in C2C12 myotubes (Example 1).
Where [9] appears, read: group (e) 10 g nicotinic acid/kg diet alone.
Setting [10] is: group (e) 3000 mg nicotinic acid alone.

Structures are written as SMILES.

In the case of `CC(C)C[C@H](N)C(=O)O` [leucine], in series [1] (leucine 24 g/kg diet alone), the “effect on cholesterol esters” value was “no independent effect” and the “effect on total cholesterol” value is “no independent effect”. The effect on lifespan entry in series [2] is given as “no independent effect”.
As for `NC(=O)c1ccc[n+]([C@@H]2O[C@H](CO)[C@@H](O)[C@H]2O)c1` [nicotinamide riboside], the “circulating level of nicotinic acid or nicotinamide riboside in a subject” value in series [3] is listed as “about 10 μM”.
`O=C(O)c1cccnc1` [nicotinic acid]: in series [4], the “effect of nicotinic acid alone on the variable studied (P-AMPK/AMPK), dose-response study” value was “no effect”. The “cutaneous vasodilation compared to all the other groups including control groups” value in series [5] (10 g of nicotinic acid/kg diet alone, laser-Doppler flowmeter) is “significant higher”. Moreover, the “HDL level in the blood stream compared to negative control group (atherogenic diet only)” value in series [5] (setting [9]) is “significantly higher”; in series [5] (per kg diet: (a) 250 mg nicotinic acid alone, (b) 250 mg nicotinic acid + 24 g leucine, (c) 50 mg nicotinic acid + 24 g leucine + 12.5 mg resveratrol) it was “similar, without statistically significant difference”. The “triglyceride, LDL and cholesterol levels in the blood stream compared to negative control group (atherogenic diet only)” value in series [5] (setting [9]) is given as “significantly lower”; in series [5] (per kg diet: (a) 250 mg nicotinic acid alone, (b) 250 mg nicotinic acid + 24 g leucine, (c) 50 mg nicotinic acid + 24 g leucine + 12.5 mg resveratrol, (d) 24 g leucine + 12.5 mg resveratrol), “similar, without statistically significant difference”. The “atherosclerotic lesion size in the aorta” value is reported as “significantly reduced” in series [5] (day 60, group (e) 10 g nicotinic acid/kg diet alone) and “No significant reduction” in series [5] (day 60, per kg diet: (a) 250 mg nicotinic acid alone, (b) 250 mg nicotinic acid + 24 g leucine, (c) 50 mg nicotinic acid + 24 g leucine + 12.5 mg resveratrol, (d) 24 g leucine + 12.5 mg resveratrol). Besides, in series [6] (3000 mg of nicotinic acid alone, laser-Doppler flowmeter and discomfort level), the “cutaneous vasodilation compared to all the other groups including placebo” value is recorded as “significant higher”. Further, the “HDL level compared to day 0 values” in series [6] ((a) 50 mg nicotinic acid alone, (b) 50 mg nicotinic acid + 1135 mg leucine, (c) 50 mg nicotinic acid + 1135 mg leucine + 50 mg resveratrol) was “similar, without statistically significant difference”; in series [6] (setting [10]) it was “significantly higher”. Also, the “triglyceride, LDL and cholesterol levels compared to day 0 values” is recorded as “similar, without statistically significant difference” in series [6] ((a) 50 mg nicotinic acid alone, (b) 50 mg nicotinic acid + 1135 mg leucine, (c) 50 mg nicotinic acid + 1135 mg leucine + 50 mg resveratrol, (d) 1135 mg leucine + 50 mg resveratrol) and “significantly lower” in series [6] (setting [10]). In addition, the “atherosclerotic plaque (lesion) size compared to day 0 values” in series [7] is listed as “similar, without statistically significant difference”. Besides, in series [1] (nicotinic acid 1,000 mg/kg diet, p<0.002), the “decrease in cholesterol esters” value was determined as 28%. The “decrease in total cholesterol” value in series [1] (nicotinic acid 1,000 mg/kg diet, p<0.01) came to 20%. For the same compound, in series [2], the effect on lifespan entry is given as “no independent effect”. Moreover, the “circulating level of nicotinic acid or nicotinamide riboside in a subject” value in series [3] was “about 10 μM”. Also, the Sirt1 levels result in series [8] (24 hours, nicotinic acid 10 nM, leucine 0.5 mM, nicotinic acid alone) is recorded as “did not have a significant effect”. The “effect of nicotinic acid alone on the variable studied (Sirt1), dose-response study” value in series [8] (concentrations of nicotinic acid <100 nM alone) is given as “no effect”.
